Tests used:
Homo sapiens [1] = species on record: Homo sapiens; test: Ratio of IC50 for human COX1 to IC50 for human COX2 in human whole blood; type: tissue-based
[2] = target: T1, Prostaglandin G/H synthase 2 (Homo sapiens, UniProt P35354)
T1 sequence (P35354 whole entry): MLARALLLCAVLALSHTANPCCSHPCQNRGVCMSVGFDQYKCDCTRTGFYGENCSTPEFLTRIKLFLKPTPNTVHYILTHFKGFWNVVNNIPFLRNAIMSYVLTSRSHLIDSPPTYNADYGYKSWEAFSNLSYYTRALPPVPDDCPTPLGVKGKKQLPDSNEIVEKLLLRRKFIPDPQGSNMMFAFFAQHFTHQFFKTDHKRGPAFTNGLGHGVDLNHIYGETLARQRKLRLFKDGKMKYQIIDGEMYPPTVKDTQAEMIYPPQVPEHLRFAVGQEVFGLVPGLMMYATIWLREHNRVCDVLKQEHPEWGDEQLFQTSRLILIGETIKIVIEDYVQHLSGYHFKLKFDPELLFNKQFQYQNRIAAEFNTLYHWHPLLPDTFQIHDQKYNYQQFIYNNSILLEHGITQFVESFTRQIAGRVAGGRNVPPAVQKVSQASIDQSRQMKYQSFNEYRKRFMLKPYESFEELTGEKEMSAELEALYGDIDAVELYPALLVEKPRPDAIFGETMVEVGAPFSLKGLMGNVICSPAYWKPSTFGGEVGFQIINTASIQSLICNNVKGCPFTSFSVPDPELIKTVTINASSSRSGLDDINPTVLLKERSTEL

Homo sapiens [3] = species on record: Homo sapiens; test: Ratio of IC50 for human COX1 to IC50 for human COX2
[4] = target: T1, Prostaglandin G/H synthase 2; remark: listed apart in the source
Description: Inhibition of human COX2 in human whole blood

Row | SMILES | Ratio IC50 (Homo sapiens [1]) | IC50 [2] | Ratio IC50 (Homo sapiens [3]) | IC50 [4]
1 | CS(=O)(=O)c1ccc(-c2nc(NCc3ccccn3)cc(C(F)(F)F)n2)cc1 | > 1 | > 10000 nM | > 1 | > 10000 nM
2 | CS(=O)(=O)c1ccc(-c2nc(SCc3cccs3)cc(C(F)(F)F)n2)cc1 | > 24400 |  |  | 4.1 nM
3 | Cc1ccccc1CNc1cc(C(F)(F)F)nc(-c2ccc(S(C)(=O)=O)cc2)n1 | > 17 |  |  | 
4 | Cc1ccc(CNc2cc(Cl)nc(-c3ccc(S(C)(=O)=O)cc3)n2)cc1 | > 2250 |  |  | 44.4 nM
5 | CCN(Cc1ccccc1)c1cc(C(F)(F)F)nc(-c2ccc(S(C)(=O)=O)cc2)n1 | > 1 |  |  | > 10000 nM
6 | CS(=O)(=O)c1ccc(-c2nc(Nc3ccccc3)cc(C(F)(F)F)n2)cc1 | > 1 |  |  | > 10000 nM
7 | CS(=O)(=O)c1ccc(-c2nc(NCc3cc4ccccc4s3)cc(C(F)(F)F)n2)cc1 |  | 5.92 nM |  | 293 nM
8 | CC[S+]([O-])c1cc(NCc2cccs2)nc(-c2ccc(S(C)(=O)=O)cc2)n1 (configuration not stated) | > 266 |  |  | 
9 | CCSc1cc(NCc2ccccc2)nc(-c2ccc(S(C)(=O)=O)cc2)n1 | 414 |  |  | 24.1 nM
10 | Cc1c(NCc2ccc(F)cc2)nc(-c2ccc(S(C)(=O)=O)cc2)nc1C(F)(F)F | > 447 |  |  | 22.4 nM
11 | CC(C)Nc1cc(NCc2cccs2)nc(-c2ccc(S(C)(=O)=O)cc2)n1 | > 9720 |  |  | 10.3 nM
12 | CS(=O)(=O)c1ccc(-c2nc(NC3CCCC3)cc(C(F)(F)F)n2)cc1 | 80 | 192 nM | > 522 | 476 nM
13 | CS(=O)(=O)c1ccc(-c2nc(NCc3ccc(C(F)(F)F)cc3)cc(C(F)(F)F)n2)cc1 | > 52 |  |  | 
14 | NS(=O)(=O)c1ccc(-c2nc(NCc3cccnc3)cc(C(F)(F)F)n2)cc1 | > 1 | > 10000 nM | > 1 | > 10000 nM
15 | CCS(=O)(=O)c1cc(NCc2cccs2)nc(-c2ccc(S(C)(=O)=O)cc2)n1 | 15 |  |  | 144 nM
16 | CS(=O)(=O)c1ccc(-c2nc(NCc3ccc(O)cc3)cc(C(F)(F)F)n2)cc1 | > 158 |  |  | 
17 | CS(=O)(=O)c1ccc(-c2nc(NCc3ccc(N)cc3)cc(C(F)(F)F)n2)cc1 | 473 |  |  | 
18 | CC(C)(C)c1cc(NCc2ccccc2)nc(-c2ccc(S(C)(=O)=O)cc2)n1 | 1060 |  |  | 
19 | CS(=O)(=O)c1ccc(-c2nc(Cl)cc(NCc3ccc(F)cc3)n2)cc1 | 2970 |  |  | 
20 | CS(=O)(=O)c1ccc(-c2nc(NCc3cc(F)cc(F)c3)cc(C(F)(F)F)n2)cc1 | > 333 |  |  | 300 nM

Row | SMILES | Ratio IC50 (Homo sapiens [1]) | IC50 [2] | Ratio IC50 (Homo sapiens [3]) | IC50 [4]
21 | CS(=O)(=O)c1ccc(-c2nc(NC3CCCCC3)cc(C(F)(F)F)n2)cc1 |  | 253 nM |  | 238 nM
22 | Cc1ccc(CNc2cc(C(F)(F)F)nc(-c3ccc(S(C)(=O)=O)cc3)n2)cc1 | > 2060 |  |  | 48.4 nM
23 | CS(=O)(=O)c1ccc(-c2nc(NCc3nc4ccccc4[nH]3)cc(C(F)(F)F)n2)cc1 | > 1 | > 10000 nM | > 1 | > 10000 nM
24 | CS(=O)(=O)c1ccc(-c2nc(NCc3ccc4ccccc4c3)cc(C(F)(F)F)n2)cc1 | > 1 | > 10000 nM | > 1 | > 10000 nM
25 | CS(=O)(=O)Oc1ccc(CNc2cc(C(F)(F)F)nc(-c3ccc(S(C)(=O)=O)cc3)n2)cc1 | > 1 |  |  | > 10000 nM
26 | Cc1c(NCc2cccs2)nc(-c2ccc(S(C)(=O)=O)cc2)nc1C(F)(F)F | > 78 |  |  | 38.2 nM
27 | CC(C)Nc1cc(NCc2ccccc2)nc(-c2ccc(S(C)(=O)=O)cc2)n1 | > 365 |  |  | 274 nM
28 | COCOc1ccc(CNc2cc(C(F)(F)F)nc(-c3ccc(S(C)(=O)=O)cc3)n2)cc1 | > 1 |  |  | > 10000 nM
29 | CCc1c(NCc2cccs2)nc(-c2ccc(S(C)(=O)=O)cc2)nc1C(F)(F)F | > 83 |  |  | 121 nM
30 | CS(=O)(=O)c1ccc(-c2nc(NCCc3cccs3)cc(C(F)(F)F)n2)cc1 | > 83 |  |  | 
31 | Cc1ccsc1CNc1cc(C(F)(F)F)nc(-c2ccc(S(C)(=O)=O)cc2)n1 | 189 |  |  | 528 nM
32 | CC(Nc1cc(C(F)(F)F)nc(-c2ccc(S(C)(=O)=O)cc2)n1)c1ccccc1 (configuration not stated) | 74 |  |  | 522 nM
33 | CCSc1cc(NCc2cccs2)nc(-c2ccc(S(C)(=O)=O)cc2)n1 | > 8400 |  |  | 1.2 nM
34 | Cc1c(Cl)nc(-c2ccc(S(C)(=O)=O)cc2)nc1NCc1ccc(F)cc1 | > 145 |  |  | 
35 | CS(=O)(=O)c1ccc(-c2nc(NCC3CCCCC3)cc(C(F)(F)F)n2)cc1 | > 68 |  | > 3610 | 
36 | CN(Cc1ccccc1)c1cc(C(F)(F)F)nc(-c2ccc(S(C)(=O)=O)cc2)n1 | 22 |  |  | 
37 | Cc1ccc(CNc2nc(-c3ccc(S(C)(=O)=O)cc3)nc(Cl)c2C)cc1 | > 2730 |  |  | 36.7 nM
38 | Cc1cccc(CNc2cc(C(F)(F)F)nc(-c3ccc(S(C)(=O)=O)cc3)n2)c1 | > 52 |  |  | 
39 | Cc1c(NCc2ccccc2)nc(-c2ccc(S(C)(=O)=O)cc2)nc1C(F)(F)F | > 556 |  |  | 18 nM
40 | Cn1cccc1CCNc1cc(C(F)(F)F)nc(-c2ccc(S(C)(=O)=O)cc2)n1 | > 25 |  |  | 3980 nM

Row | SMILES | Ratio IC50 (Homo sapiens [1]) | IC50 [2] | Ratio IC50 (Homo sapiens [3]) | IC50 [4]
41 | CS(=O)(=O)c1ccc(-c2nc(NCc3ccc(OC(F)(F)F)cc3)cc(C(F)(F)F)n2)cc1 | > 1 |  |  | > 10000 nM
42 | CCc1c(NCc2ccc(F)cc2)nc(-c2ccc(S(C)(=O)=O)cc2)nc1C(F)(F)F | > 972 |  |  | 
43 | CC(C)c1ccc(CNc2cc(C(F)(F)F)nc(-c3ccc(S(C)(=O)=O)cc3)n2)cc1 | > 1 |  |  | > 10000 nM
44 | CS(=O)(=O)c1ccc(-c2nc(NCc3ccc(F)cc3)cc(C(F)(F)F)n2)cc1 | 1300 |  |  | 77.2 nM
45 | CS(=O)(=O)c1ccc(-c2nccc(NCc3cccs3)n2)cc1 | > 10900 |  |  | 9.2 nM
46 | CC(C)c1cc(NCc2ccccc2)nc(-c2ccc(S(C)(=O)=O)cc2)n1 | > 396 |  |  | 
47 | COc1cc(NCc2cccs2)nc(-c2ccc(S(C)(=O)=O)cc2)n1 | > 22000 |  |  | 
48 | COc1cc(NCc2ccccc2)nc(-c2ccc(S(C)(=O)=O)cc2)n1 | > 19600 |  |  | 5.1 nM
49 | CS(=O)(=O)c1ccc(-c2nc(C(F)(F)F)cc(S(=O)(=O)Cc3ccccc3)n2)cc1 | > 1 |  |  | > 10000 nM
50 | Cc1ccc(CNc2cc(C(F)(F)F)nc(-c3ccc(S(C)(=O)=O)cc3)n2)s1 | > 852 |  |  | 11.7 nM
51 | CS(=O)(=O)c1ccc(-c2nc(Cl)cc(NCc3cccs3)n2)cc1 | > 81300 |  |  | 
52 | CS(=O)(=O)c1ccc(-c2nc(SCc3ccccc3)cc(C(F)(F)F)n2)cc1 | > 189 |  |  | 528 nM
53 | CS(=O)(=O)c1ccc(-c2nc(O)cc(NCc3ccccc3)n2)cc1 | > 2030 |  |  | 
54 | CC(C)c1ccc(Nc2cc(C(F)(F)F)nc(-c3ccc(S(C)(=O)=O)cc3)n2)cc1 | > 1 |  |  | > 10000 nM
55 | CCS(=O)(=O)c1cc(NCc2ccccc2)nc(-c2ccc(S(C)(=O)=O)cc2)n1 | > 110 |  |  | 90.7 nM
56 | COc1ccc(CNc2cc(C(F)(F)F)nc(-c3ccc(S(C)(=O)=O)cc3)n2)cc1 | > 367 |  |  | 272 nM
57 | CS(=O)(=O)c1ccc(-c2nc(Cl)cc(NCc3ccccc3)n2)cc1 | > 9120 |  |  | 
58 | CS(=O)(=O)c1ccc(-c2nc([S+]([O-])Cc3ccccc3)cc(C(F)(F)F)n2)cc1 (configuration not stated) | > 1 |  |  | > 10000 nM
59 | CS(=O)(=O)c1ccc(-c2nccc(NCc3ccccc3)n2)cc1 | > 1 |  |  | > 10000 nM
60 | CS(=O)(=O)c1ccc(-c2nc(O)cc(NCc3cccs3)n2)cc1 | > 1260 |  |  | 

From ChEMBL document CHEMBL1143107 (Bioorg Med Chem, 2008)
